Here are results for 20 compounds from PubChem BioAssay AID292 (DTP/NCI, 2004).

The test system of this assay is B6C3F1 mice, ip Sarcoma M5076, median survival T/C. Briefly: NCI In Vivo Anticancer Drug Screen. Data for tumor model Sarcoma M5076 (intraperitoneal) in B6C3F1 mice. As to conditions: endpoint: median survival time, schedule: Q04DX004 (ip), higher = longer survival. The protocol: The antitumor activity of compounds was measured in mice bearing transplantable tumors. Survival or tumor size were measured and the results are expressed as the measurement made in the treated group (T) divided by the measurement made in the vehicle treated control group (C). The tumor model used in this assay is Sarcoma M5076 (intraperitoneal) in B6C3F1 mice

Where [1] appears, read: dose: 50.0 mg/kg/injection, vehicle: saline with Tween-80.
The mark [2] stands for this setting: dose: 100.0 mg/kg/injection, vehicle: saline with Tween-80.
[3] abbreviates: dose: 200.0 mg/kg/injection, vehicle: saline with Tween-80.
The mark [4] stands for this setting: dose: 400.0 mg/kg/injection, vehicle: saline with Tween-80.
[5] abbreviates: dose: 25.0 mg/kg/injection, vehicle: water.
[6] abbreviates: dose: 50.0 mg/kg/injection, vehicle: water.
[7] abbreviates: dose: 100.0 mg/kg/injection, vehicle: water.
[8] abbreviates: dose: 200.0 mg/kg/injection, vehicle: water.
Setting [9] is: dose: 50.0 mg/kg/injection, vehicle: Klucel (hydroxypropylcellulose) (HPC).
The mark [10] stands for this setting: dose: 100.0 mg/kg/injection, vehicle: Klucel (hydroxypropylcellulose) (HPC).
Setting [11] is: dose: 6.25 mg/kg/injection, vehicle: Klucel (hydroxypropylcellulose) (HPC).
The mark [12] stands for this setting: dose: 12.5 mg/kg/injection, vehicle: Klucel (hydroxypropylcellulose) (HPC).
Where [13] appears, read: dose: 25.0 mg/kg/injection, vehicle: Klucel (hydroxypropylcellulose) (HPC).

Structures are written as SMILES. Where “and” joins values, the source holds several entries; their conditions need not be identical. Equal entries are not always repeated. Inconclusive results and toxic doses are left out.

Regarding `COc1cc2c(c(OC)c1OC)-c1ccc(OC)c(=O)cc1[C@@H](N)CC2`, the T/C is 119 % of control (dose: 5.0 mg/kg/injection, vehicle: saline); 116 % of control (dose: 5.0 mg/kg/injection, vehicle: suspension in saline); 123 % of control (dose: 8.6 mg/kg/injection, vehicle: suspension in saline); 118 % of control (dose: 10.0 mg/kg/injection, vehicle: suspension in saline); 152 % of control (dose: 20.0 mg/kg/injection, vehicle: saline); 123 % of control (dose: 24.0 mg/kg/injection, vehicle: suspension in saline). Further, the T/C (dose: 40.0 mg/kg/injection, vehicle: saline) is 157 % of control.
Consider `O=S(=O)(O)SCCNCCCCC1CCCCC1`, for which the T/C is, setting by setting: (dose: 3.75 mg/kg/injection, vehicle: saline with Tween-80) 100 % of control; (dose: 7.5 mg/kg/injection, vehicle: saline with Tween-80) 99 % of control; (dose: 15.0 mg/kg/injection, vehicle: saline with Tween-80) 101 % of control.
On to `COCCCn1c(C(Cl)(Cl)Cl)nn2c(=O)c3ccccc3nc2c1=O`, for which the T/C by setting is: under setting [1], 103 % of control; under setting [2], 99 % of control; under setting [3], 94 % of control; under setting [4], 90 % of control.
`Cc1cc2nncn2c2nnnn12`: the T/C by setting is: (dose: 12.5 mg/kg/injection, vehicle: water) 101 % of control; under setting [5], 98 % of control; under setting [6], 95 % of control; under setting [7], 101 % of control; under setting [8], 98 % of control.
Turning to `CCC1(O)C(=O)OCc2c1cc1n(c2=O)Cc2cc3cc(N)ccc3nc2-1` (stereo not drawn), the T/C was 160 % of control (dose: 7.5 mg/kg/injection, vehicle: suspension in saline); 174 % of control (dose: 9.0 mg/kg/injection, vehicle: suspension in saline); 170 % of control and 231 % of control (dose: 15.0 mg/kg/injection, vehicle: suspension in saline); 150 % of control (dose: 25.0 mg/kg/injection, vehicle: suspension in saline); 90 % of control (dose: 42.0 mg/kg/injection, vehicle: suspension in saline).
As for `O=C1NC(=O)C23CCCCc4cccc(c42)C(=O)C13` (stereo not drawn), the T/C reads like this: under setting [5], 103 % of control; under setting [6], 103 % of control; under setting [7], 107 % of control; under setting [8], 103 % of control; (dose: 400.0 mg/kg/injection, vehicle: water) 106 % of control.
`CC(=O)C1C(=O)C(=O)N(Cc2ccccc2)C1=O` (stereo not drawn): the T/C is 98 % of control (dose: 46.88 mg/kg/injection, vehicle: Klucel (hydroxypropylcellulose) (HPC)); 95 % of control (dose: 93.75 mg/kg/injection, vehicle: Klucel (hydroxypropylcellulose) (HPC)); 99 % of control (dose: 187.5 mg/kg/injection, vehicle: Klucel (hydroxypropylcellulose) (HPC)); 98 % of control (dose: 375.0 mg/kg/injection, vehicle: Klucel (hydroxypropylcellulose) (HPC)).
With `CC(=O)/C(=C\c1ccc(/C=C(\C(C)=O)C(=O)CCN(C)C)cc1)C(=O)CCN(C)C`, under setting [4], the T/C was 92 % of control.
For `Clc1ccc(OCC(Cn2ccnc2)c2ccc(Cl)cc2)cc1` (stereo not drawn), the T/C was 115 % of control (dose: 18.75 mg/kg/injection, vehicle: saline with Tween-80); 102 % of control (dose: 37.5 mg/kg/injection, vehicle: saline with Tween-80); 101 % of control (dose: 75.0 mg/kg/injection, vehicle: saline with Tween-80).
Regarding `O=C(Nc1ccc([N+](=O)[O-])cc1)C1C(=O)C(=O)N(c2ccc([N+](=O)[O-])cc2)C1=O` (stereo not drawn), the T/C reads like this: (dose: 50.0 mg/kg/injection, vehicle: Klucel + Tween-80) 96 % of control; (dose: 100.0 mg/kg/injection, vehicle: Klucel + Tween-80) 104 % of control; (dose: 200.0 mg/kg/injection, vehicle: Klucel + Tween-80) 92 % of control.
Turning to `CN1C2C=CC(=O)C1C1C(=O)N(c3ccccc3)C(=O)C12` (stereo not drawn), the T/C under setting [9] is 102 % of control; the T/C under setting [10] is 96 % of control; the T/C (dose: 200.0 mg/kg/injection, vehicle: Klucel (hydroxypropylcellulose) (HPC)) was 118 % of control.
As for `O=C1N2CCNc3ccccc3C(c3ccccc3)N1CC2` (stereo not drawn), the T/C is 117 % of control under setting [11], 103 % of control under setting [12] and 106 % of control under setting [13].
For `BrC[P+](CBr)(CBr)CBr`, the T/C was 107 % of control and 115 % of control (dose: 15.63 mg/kg/injection, vehicle: saline with Tween-80); 186 % of control (dose: 125.0 mg/kg/injection, vehicle: saline with Tween-80).
Turning to `COc1ccc(CCN2C(=O)C(=O)N(c3cccc4c(N5C(=O)C(=O)N(CCc6ccc(OC)c(OC)c6)C5=O)cccc34)C2=O)cc1OC`, the T/C runs as follows: (dose: 18.75 mg/kg/injection, vehicle: Klucel (hydroxypropylcellulose) (HPC)) 94 % of control; (dose: 37.5 mg/kg/injection, vehicle: Klucel (hydroxypropylcellulose) (HPC)) 99 % of control; (dose: 75.0 mg/kg/injection, vehicle: Klucel (hydroxypropylcellulose) (HPC)) 99 % of control; (dose: 150.0 mg/kg/injection, vehicle: Klucel (hydroxypropylcellulose) (HPC)) 105 % of control.
With `COc1ccc(OC)c(N2C(=O)C(=O)C(C(C)=O)C2=O)c1` (stereo not drawn), the T/C by setting is: under setting [9], 104 % of control; under setting [10], 100 % of control.
In the case of `N#Cc1ccc(NN=O)nc1`, the T/C (dose: 6.25 mg/kg/injection, vehicle: water) is 124 % of control; the T/C (dose: 6.5 mg/kg/injection, vehicle: water) is 116 % of control; the T/C under setting [5] is 152 % of control; the T/C under setting [6] was 160 % of control and 177 % of control; the T/C (dose: 83.0 mg/kg/injection, vehicle: water) is 182 % of control; the T/C under setting [7] is 118 % of control. Moreover, the T/C (dose: 139.0 mg/kg/injection, vehicle: water) was 200 % of control.
`COC(=O)c1c(C(=O)OC)c2c(C)nn3ccc1n23`: the T/C was 96 % of control (dose: 12.5 mg/kg/injection, vehicle: saline with Tween-80); 97 % of control (dose: 25.0 mg/kg/injection, vehicle: saline with Tween-80); 96 % of control under setting [1]; 104 % of control under setting [2]; 93 % of control under setting [3].
`Cn1c(-c2ccc(Br)cc2)cc2[nH]c(=S)nc(N)c2c1=O`: the T/C is 96 % of control under setting [1], 92 % of control under setting [2] and 87 % of control under setting [3].
On to `CC1=CCCC2C1(C)CCC(C)C2(C)Cc1cc(O)ccc1O` (stereo not drawn), for which the T/C by setting is: under setting [11], 103 % of control; under setting [12], 99 % of control; under setting [13], 101 % of control; under setting [9], 99 % of control; under setting [10], 102 % of control.
Turning to `CC(CNC(=O)C12CC3CC(CC(C3)C1)C2)NC(=O)C12CC3CC(CC(C3)C1)C2` (stereo not drawn), the T/C is 94 % of control (dose: 25.0 mg/kg/injection, vehicle: other); 98 % of control (dose: 50.0 mg/kg/injection, vehicle: other); 90 % of control (dose: 100.0 mg/kg/injection, vehicle: other); 98 % of control (dose: 200.0 mg/kg/injection, vehicle: other).
